# Experimental data published in PubChem BioAssay (NCI).
#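 Briefly, cells in 96-well plates were exposed to five compound concentrations for 48 h, and endpoints were estimated by linear interpolation. The concentration for 50% growth inhibition is given as GI50. Definition used: TGI = concentration required for complete inhibition of growth.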
# Legend:
# Test in all cases: inhibition of tumour cell growth, NCI panel, 48 h
# [1] = tested on: 786-0 renal
# [2] = tested on: A498 renal
# [3] = tested on: A549 NSCLC
# [4] = tested on: ACHN renal
# [5] = tested on: BT-549 breast
# [6] = tested on: CAKI-1 renal
# [7] = tested on: CCRF-CEM leukemia
# [8] = tested on: COLO 205 colon
# [9] = tested on: DU-145 prostate
# [10] = tested on: EKVX NSCLC
# [11] = tested on: HCC-2998 colon
# [12] = tested on: HCT-116 colon
# [13] = tested on: HCT-15 colon
# [14] = tested on: HL-60(TB) leukemia
# [15] = tested on: HOP-62 NSCLC
# [16] = tested on: HOP-92 NSCLC
# [17] = tested on: HS 578T breast
# [18] = tested on: HT29 colon
# [19] = tested on: IGROV1 ovarian
# [20] = tested on: K-562 leukemia
# [21] = tested on: KM12 colon
# [22] = tested on: LOX IMVI melanoma
# [23] = tested on: M14 melanoma
# [24] = tested on: MALME-3M melanoma
# [25] = tested on: MCF7 breast
# [26] = tested on: MDA-MB-231 breast
# [27] = tested on: MDA-MB-435
# [28] = tested on: MOLT-4 leukemia
# [29] = tested on: NCI-H226 lung
# [30] = tested on: NCI-H23 lung
# [31] = tested on: NCI-H460 lung
# [32] = tested on: NCI-H522 lung
# [33] = tested on: NCI/ADR-RES ovarian
# [34] = tested on: OVCAR-3 ovarian
# [35] = tested on: OVCAR-4 ovarian
# [36] = tested on: OVCAR-5 ovarian
# [37] = tested on: OVCAR-8 ovarian
# [38] = tested on: PC-3 prostate
# [39] = tested on: RPMI-8226 leukemia
# [40] = tested on: RXF 393 renal
# [41] = tested on: SF-268 CNS
# [42] = tested on: SF-295 CNS
# [43] = tested on: SF-539 CNS
# [44] = tested on: SK-MEL-2 melanoma
# [45] = tested on: SK-MEL-28 melanoma
# [46] = tested on: SK-MEL-5 melanoma
# [47] = tested on: SK-OV-3 ovarian
# [48] = tested on: SN12C renal
# [49] = tested on: SNB-19 CNS
# [50] = tested on: SNB-75 CNS
# [51] = tested on: SR leukemia
# [52] = tested on: SW-620 colon
# [53] = tested on: T-47D breast
# [54] = tested on: TK-10 renal
# [55] = tested on: U251 CNS
# [56] = tested on: UACC-257 melanoma
# [57] = tested on: UACC-62 melanoma
# [58] = tested on: UO-31 renal
compound,measurement,setting,value
CC(C)(C(=O)NCC(F)(F)C(F)(F)F)C(=O)N[C@@H]1C(=O)Nc2ccccc2-c2ccccc21,GI50,[1],> 64.3 µM
same,TGI,[1],> 100 µM
same,GI50,[2],50.3 µM
same,TGI,[2],> 100 µM
same,GI50,[3],51.9 µM
same,TGI,[3],> 100 µM
same,GI50,[4],50.4 µM
same,TGI,[4],> 100 µM
same,GI50,[5],36.3 µM
same,TGI,[5],> 100 µM
same,GI50,[6],45.4 µM
same,TGI,[6],> 100 µM
same,GI50,[7],45.3 µM
same,TGI,[7],> 100 µM
same,GI50,[8],34 µM
same,TGI,[8],> 100 µM
same,GI50,[9],> 87.2 µM
same,TGI,[9],> 100 µM
same,GI50,[10],52.7 µM
same,TGI,[10],> 100 µM
same,GI50,[11],40.6 µM
same,TGI,[11],> 100 µM
same,GI50,[12],46.1 µM
same,TGI,[12],> 100 µM
same,GI50,[13],51.3 µM
same,TGI,[13],> 100 µM
same,GI50,[14],37.5 µM
same,TGI,[14],> 100 µM
same,GI50,[15],> 93.4 µM
same,TGI,[15],> 100 µM
same,GI50,[16],39.2 µM
same,TGI,[16],> 100 µM
same,GI50,[17],> 56 µM
same,TGI,[17],> 100 µM
same,GI50,[18],39.7 µM
same,TGI,[18],> 100 µM
same,GI50,[19],> 71.6 µM
same,TGI,[19],> 100 µM
same,GI50,[20],> 67.3 µM
same,TGI,[20],> 100 µM
same,GI50,[21],73.3 µM
same,TGI,[21],> 100 µM
same,GI50,[22],> 59.2 µM
same,TGI,[22],> 100 µM
same,GI50,[23],38.8 µM
same,TGI,[23],> 100 µM
same,GI50,[24],> 61.9 µM
same,TGI,[24],> 100 µM
same,GI50,[25],27.3 µM
same,TGI,[25],> 100 µM
same,GI50,[26],44 µM
same,TGI,[26],> 100 µM
same,GI50,[27],> 63.7 µM
same,TGI,[27],> 100 µM
same,GI50,[28],40.3 µM
same,TGI,[28],> 100 µM
same,GI50,[29],30.1 µM
same,TGI,[29],> 100 µM
same,GI50,[30],> 67 µM
same,TGI,[30],> 100 µM
same,GI50,[31],52.4 µM
same,TGI,[31],> 100 µM
same,GI50,[32],65.1 µM
same,TGI,[32],> 100 µM
same,GI50,[33],42.4 µM
same,TGI,[33],> 100 µM
same,GI50,[34],68.8 µM
same,TGI,[34],> 100 µM
same,GI50,[35],34.1 µM
same,TGI,[35],> 100 µM
same,GI50,[36],97 µM
same,TGI,[36],> 100 µM
same,GI50,[37],55.6 µM
same,TGI,[37],> 100 µM
same,GI50,[38],50.8 µM
same,TGI,[38],> 100 µM
same,GI50,[39],54.5 µM
same,TGI,[39],> 100 µM
same,GI50,[40],20 µM
same,TGI,[40],> 78.7 µM
same,GI50,[41],67.5 µM
same,TGI,[41],> 100 µM
same,GI50,[42],43.7 µM
same,TGI,[42],> 100 µM
same,GI50,[43],> 84.8 µM
same,TGI,[43],> 100 µM
same,GI50,[44],> 57.2 µM
same,TGI,[44],> 100 µM
same,GI50,[45],42 µM
same,TGI,[45],> 100 µM
same,GI50,[46],16 µM
same,TGI,[46],37.5 µM
same,GI50,[47],99 µM
same,TGI,[47],> 100 µM
same,GI50,[48],> 85 µM
same,TGI,[48],> 100 µM
same,GI50,[49],62.3 µM
same,TGI,[49],> 100 µM
same,GI50,[50],21.6 µM
same,TGI,[50],> 100 µM
same,GI50,[51],35.5 µM
same,TGI,[51],99 µM
same,GI50,[52],> 70.2 µM
same,TGI,[52],> 100 µM
same,GI50,[53],23.7 µM
same,TGI,[53],99 µM
same,GI50,[54],> 100 µM
same,TGI,[54],> 100 µM
same,GI50,[55],> 78.5 µM
same,TGI,[55],> 100 µM
same,GI50,[56],47.3 µM
same,TGI,[56],> 100 µM
same,GI50,[57],29.2 µM
same,TGI,[57],> 100 µM
same,GI50,[58],32.3 µM
same,TGI,[58],> 100 µM
Cn1cc(-c2csc(-c3c[nH]c4ccccc34)n2)c2cccnc21,GI50,[1],2.66 µM
same,TGI,[1],> 91.1 µM
same,GI50,[2],0.688 µM
same,TGI,[2],46.6 µM
same,GI50,[3],0.656 µM
same,TGI,[3],> 64.4 µM
same,GI50,[4],0.97 µM
same,TGI,[4],> 100 µM
same,GI50,[5],1.16 µM
same,TGI,[5],38.7 µM
same,GI50,[6],0.291 µM
same,TGI,[6],> 37.9 µM
same,GI50,[7],0.534 µM
same,TGI,[7],> 100 µM
same,GI50,[8],0.431 µM
same,TGI,[8],6.98 µM
same,GI50,[9],1.05 µM
same,TGI,[9],34.4 µM
same,GI50,[10],0.636 µM
same,TGI,[10],> 40.5 µM
same,GI50,[11],1.27 µM
same,TGI,[11],> 100 µM
same,GI50,[12],0.363 µM
same,TGI,[12],> 100 µM
same,GI50,[13],0.503 µM
same,TGI,[13],> 100 µM
same,GI50,[14],0.343 µM
same,TGI,[14],> 100 µM
same,GI50,[15],0.718 µM
same,TGI,[15],27 µM
same,GI50,[16],0.915 µM
same,TGI,[16],14.1 µM
same,GI50,[17],5.9 µM
same,TGI,[17],> 100 µM
same,GI50,[18],0.324 µM
same,TGI,[18],1.72 µM
same,GI50,[19],0.308 µM
same,TGI,[19],22.9 µM
same,GI50,[20],0.232 µM
same,TGI,[20],> 100 µM
same,GI50,[21],0.413 µM
same,TGI,[21],77.2 µM
same,GI50,[22],0.537 µM
same,TGI,[22],> 100 µM
same,GI50,[23],0.356 µM
same,TGI,[23],> 100 µM
same,GI50,[24],0.215 µM
same,TGI,[24],16.2 µM
same,GI50,[25],1.07 µM
same,TGI,[25],> 100 µM
same,GI50,[26],1.33 µM
same,TGI,[26],86.2 µM
same,GI50,[27],0.0804 µM
same,TGI,[27],0.323 µM
same,GI50,[28],0.798 µM
same,TGI,[28],> 100 µM
same,GI50,[29],2.55 µM
same,TGI,[29],> 66 µM
same,GI50,[30],1.16 µM
same,TGI,[30],> 100 µM
same,GI50,[31],0.37 µM
same,TGI,[31],> 42.2 µM
same,GI50,[32],0.211 µM
same,TGI,[32],2.01 µM
same,GI50,[33],0.28 µM
same,TGI,[33],12.4 µM
same,GI50,[34],0.297 µM
same,TGI,[34],3 µM
same,GI50,[35],2.89 µM
same,TGI,[35],> 100 µM
same,GI50,[36],8.88 µM
same,TGI,[36],> 100 µM
same,GI50,[37],0.776 µM
same,TGI,[37],> 91.9 µM
same,GI50,[38],0.988 µM
same,TGI,[38],> 66.7 µM
same,GI50,[39],1.84 µM
same,TGI,[39],> 100 µM
same,GI50,[40],1.1 µM
same,TGI,[40],9.84 µM
same,GI50,[41],0.813 µM
same,TGI,[41],> 100 µM
same,GI50,[42],0.305 µM
same,TGI,[42],6.09 µM
same,GI50,[43],0.655 µM
same,TGI,[43],9.05 µM
same,GI50,[44],0.498 µM
same,GI50,[45],3.12 µM
same,TGI,[45],> 100 µM
same,GI50,[46],0.391 µM
same,TGI,[46],11.7 µM
same,GI50,[47],0.966 µM
same,TGI,[47],23 µM
same,GI50,[48],1.47 µM
same,TGI,[48],> 100 µM
same,GI50,[49],0.825 µM
same,TGI,[49],> 75.1 µM
same,GI50,[50],0.542 µM
same,TGI,[50],4.82 µM
same,GI50,[51],0.437 µM
same,TGI,[51],> 100 µM
same,GI50,[52],0.367 µM
same,TGI,[52],> 72.5 µM
same,GI50,[53],0.783 µM
same,TGI,[53],> 27.5 µM
same,GI50,[54],1.56 µM
same,TGI,[54],18.1 µM
same,GI50,[55],0.415 µM
same,TGI,[55],16.2 µM
same,GI50,[56],1.65 µM
same,TGI,[56],> 90.3 µM
same,GI50,[57],0.448 µM
same,TGI,[57],> 100 µM
same,GI50,[58],0.523 µM
same,TGI,[58],> 44.1 µM
